Experimental data taken from patent US9512406B2, “Generating hepatocytes” (The J. David Gladstone Institutes, a testamentary trust …, priority 2013, dated 2016).
Numbered stars: 1 amine (or outer) side, 2 acyl side, 3 side chain; on linkers, the order of the positions; unused ones are H or OH. Square brackets hold non-standard residues; d marks the D form. Peptide text beside a SMILES is read from it. * marks the point of attachment. X1 = CC(N[*:1])C(=O)C(F)(F)C(=O)[*:2]; Boc = CC(C)(C)OC(=O)*

How the values were obtained:
[1] = test system: iMPC-EPCs; assay: Hepatocyte differentiation of iMPC-EPCs, ALB gene expression by qRT-PCR; conditions: day 18 of hepatocyte specification; particularly when applied together
Method: Error bars represent SEM of technical replicates (n=3).
For qRT-PCR analysis, total RNA was extracted using the miRNeasy Mini Kit (Qiagen) or RNeasy Plus Mini Kit in combination with QIAshredder (Qiagen). First-strand reverse transcription was performed with 0.5-1 μg RNA using the iScript cDNA Synthesis Kit (BioRad) or qScript cDNA Supermix (Quanta Biosciences). qRT-PCR was performed using PerfeCTa SYBR Green SuperMix (Quanta) or iQ SYBR Green Supermix (Bio-Rad) on an Applied Biosciences ViiA 7 Real-Time PCR System (Invitrogen). aHeps purchased from Yecuris or the Liver Tissue Cell Distribution System (LTCDS) were shipped overnight in suspension, centrifuged for 5 minutes at 300×g immediately after arrival, and stored as cell pellets at −80° C. prior to RNA extraction.
To improve hepatocyte differentiation, small molecules were screened for induction of ALB gene expression.

[2] = test system: iMPC-EPCs; assay: Expansion of iMPC-EPC colonies
[3] = biological target: SAPK2/p38 (Homo sapiens, UniProt Q16539); conditions: CK1 and ALK5 inhibitor versus SAPK2/p38; cited from earlier work
Chain of SAPK2/p38 (Q16539 whole entry, canonical isoform): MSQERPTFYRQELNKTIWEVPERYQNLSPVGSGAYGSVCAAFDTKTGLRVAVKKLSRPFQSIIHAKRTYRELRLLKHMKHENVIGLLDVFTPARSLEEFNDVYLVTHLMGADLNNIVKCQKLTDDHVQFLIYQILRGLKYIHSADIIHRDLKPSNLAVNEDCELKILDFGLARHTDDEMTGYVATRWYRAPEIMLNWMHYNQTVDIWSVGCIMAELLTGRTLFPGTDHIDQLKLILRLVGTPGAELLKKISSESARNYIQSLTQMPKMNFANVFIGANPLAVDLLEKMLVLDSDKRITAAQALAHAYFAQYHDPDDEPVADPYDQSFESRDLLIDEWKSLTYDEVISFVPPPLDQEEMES

[4] = test system: histone deacetylases (HDACs); conditions: isoform not stated; read-out: IC50 (histone deacetylase inhibition); cited from earlier work
[5] = test system: HDAC activity in HeLa extracts; conditions: read-out: IC50 for inhibition of HDAC activity; cited from earlier work
[6] = biological target: CYP2D6 (Homo sapiens, UniProt P10635); conditions: 2 mg/kg debrisoquine by gavage; mice repopulated with iMPC-Heps or aHeps
Chain of CYP2D6 (P10635 whole entry): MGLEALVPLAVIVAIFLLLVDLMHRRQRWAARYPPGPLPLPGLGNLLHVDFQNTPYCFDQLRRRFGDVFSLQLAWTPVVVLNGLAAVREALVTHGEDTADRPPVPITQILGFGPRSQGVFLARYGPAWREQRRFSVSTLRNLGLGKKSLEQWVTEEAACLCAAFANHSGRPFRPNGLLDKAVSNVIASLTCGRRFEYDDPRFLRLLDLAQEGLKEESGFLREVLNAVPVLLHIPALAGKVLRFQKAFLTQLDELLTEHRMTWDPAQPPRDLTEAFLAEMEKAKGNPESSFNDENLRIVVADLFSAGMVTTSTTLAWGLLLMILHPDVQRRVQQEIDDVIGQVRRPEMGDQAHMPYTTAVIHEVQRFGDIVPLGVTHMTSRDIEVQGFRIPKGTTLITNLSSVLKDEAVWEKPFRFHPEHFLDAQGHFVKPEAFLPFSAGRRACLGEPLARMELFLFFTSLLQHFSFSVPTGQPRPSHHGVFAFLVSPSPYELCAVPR
Source text: Scale bar=100 μm. […] Scale bars=100 μm. […] Scale bars=100 μm.

[7] = biological target: T1, calpain II (Homo sapiens, UniProt P17655); conditions: purified enzyme assay; read-out: IC50 against calpain II; cited from earlier work
T1 sequence (P17655 1-700): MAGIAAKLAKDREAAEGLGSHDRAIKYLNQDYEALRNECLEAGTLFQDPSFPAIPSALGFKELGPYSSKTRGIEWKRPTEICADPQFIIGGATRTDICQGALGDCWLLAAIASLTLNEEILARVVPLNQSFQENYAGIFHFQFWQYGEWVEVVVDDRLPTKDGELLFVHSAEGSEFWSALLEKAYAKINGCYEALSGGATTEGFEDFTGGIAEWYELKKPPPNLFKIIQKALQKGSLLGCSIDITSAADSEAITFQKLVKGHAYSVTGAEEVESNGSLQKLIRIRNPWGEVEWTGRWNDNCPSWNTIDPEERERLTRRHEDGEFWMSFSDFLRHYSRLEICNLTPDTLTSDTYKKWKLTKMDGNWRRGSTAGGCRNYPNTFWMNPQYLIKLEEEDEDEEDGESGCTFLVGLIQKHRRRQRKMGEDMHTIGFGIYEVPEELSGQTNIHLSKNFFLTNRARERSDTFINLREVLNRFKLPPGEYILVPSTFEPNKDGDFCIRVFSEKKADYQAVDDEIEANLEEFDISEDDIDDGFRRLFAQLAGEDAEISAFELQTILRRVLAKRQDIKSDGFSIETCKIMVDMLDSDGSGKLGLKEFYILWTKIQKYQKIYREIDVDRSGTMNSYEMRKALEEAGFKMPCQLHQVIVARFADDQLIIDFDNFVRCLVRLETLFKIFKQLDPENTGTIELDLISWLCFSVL
T1 sequence (P04632 1-268 partner): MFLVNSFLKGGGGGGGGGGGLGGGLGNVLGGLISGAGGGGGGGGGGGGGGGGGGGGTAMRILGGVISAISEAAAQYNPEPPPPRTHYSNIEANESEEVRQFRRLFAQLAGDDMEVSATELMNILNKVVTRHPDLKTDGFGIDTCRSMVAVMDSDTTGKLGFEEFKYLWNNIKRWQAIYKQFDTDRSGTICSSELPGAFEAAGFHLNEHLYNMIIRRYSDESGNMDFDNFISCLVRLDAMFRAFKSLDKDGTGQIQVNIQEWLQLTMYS

[8] = test system: Human newborn fibroblasts (CRL-2097, ATCC); assay: Reprogramming of newborn fibroblasts to endoderm, FOXA2-positive colonies by immunostaining; conditions: day 28; added to CHIR/Activin A reprogramming medium
Method: The small molecules tested included combinations of CHIR99021 (CH), dilauroyl phosphatidylcholine (DLPC), sodium butyrate (NaB), parnate (Par), and RG108 (RG). […] Medium containing Activin A was additionally supplemented with the indicated small molecules.
Standard immunostaining was carried out as previously reported. […] Nuclei were visualized by Hoechst (Sigma-Aldrich) staining. Images were captured using a Nikon Eclipse TE2000-U microscope.
Next, EGF and bFGF were replaced with Activin A to induce Nodal signaling and promote endoderm fate (see FIG. 1A). […] To improve the efficiency of endoderm differentiation, the cells were exposed to several small molecules.

[9] = test system: presenilase; conditions: at higher concentrations (20-400 μM); cited from earlier work
[10] = biological target: γ-secretase; conditions: for total β-amyloid; cited from earlier work

Cc1cccc(-c2nn(C(=S)Nc3ccccc3)cc2-c2ccnc3ccccc23)n1 [A83-01, 3-(6-Methyl-2-pyridinyl)-N-phenyl-4-(4-quinolinyl)-1H-pyrazole-1-carbothioamide]
induction of ALB gene expression [1]: effective
iMPC-EPC colony size ([2]; CHIR99021 combined with A83-01): increased

NC(=O)c1ccc(-c2nc(-c3ccc4c(c3)OCCO4)c(-c3ccccn3)[nH]2)cc1 [D 4476, 4-[4-(2,3-Dihydro-1,4-benzodioxin-6-yl)-5-(2-pyridinyl)-IH-imidazol-2-yl]benzamide]
selectivity over SAPK2/p38 [3]: greater than 20 fold

bFGF: basic fibroblast growth factor
iMPC-EPC colony size ([2]; EGF and bFGF added to CHIR99021 and A83-01): further increased

CC(/C=C/C(=O)NO)=C\[C@@H](C)C(=O)c1ccc(N(C)C)cc1 [Trichostatin A, (R,2E,4E)-6-(4-(dimethylamino)benzoyl)-N-hydroxy-4-methylhepta-2,4-dienamide]
IC50 [4]: ~1.8 nM

Nc1ccccc1NC(=O)CCCCCCC(=O)Nc1ccccc1 [BML-210, N1-(2-aminophenyl)-N8-phenyl-octanediamide]
IC50 [5]: ~80000 nM

N=C(N)N1Cc2ccccc2C(O)C1 (stereo not shown) [4-hydroxydebrisoquine]
time of peak plasma level after gavage [6]: 1 h

Nc1ccccc1NC(=O)c1ccc(CNC(=O)OCc2cccnc2)cc1 [MS-27-275, pyridin-3-ylmethyl-N-[[4-[(2-aminophenyl)carbamoyl]phenyl]methyl]carbamate]
IC50 [4]: 100 to 1000 nM

CC1(C)NC(=O)C(CCCCCC(=O)[C@H]2CO2)NC(=O)C2CCCN2C(=O)[C@@H](Cc2ccccc2)NC1=O (stereo partly drawn) [Chlamydocin, (3R)-3-benzyl-6,6-dimethyl-9-[6-[(2R)-oxiran-2-yl]-6-oxohexyl]-1,4,7,10-tetrazabicyclo[10.3.0]pentadecane-2,5,8,11-tetrone]
IC50 [4]: ~0.15 nM

Nc1ccccc1NC(=O)c1ccc(CNc2nccc(-c3cccnc3)n2)cc1 [MGCD0103, N-(2-aminophenyl)-4-[[(4-pyridin-3-ylpyrimidin-2-yl)amino]methyl]benzamide]
IC50 [4]: ~100 nM

CCC(C)C(NC(=O)C(NC(=O)OC(C)(C)C)C(C)C)C(=O)NC(C)C(=O)C(F)(F)C(=O)NC(C(=O)NC(C(=O)OC)C(C)CC)C(C)C (stereo not shown) [Gamma-Secretase Inhibitor II] (Boc-VI[X1]VI-OMe; configuration not given here)
IC50 [7]: 100000 nM

Cc1c[nH]c(-c2cnc(NCCNc3ccc(C#N)cn3)nc2-c2ccc(Cl)cc2Cl)n1 [CHIR99021, 6-(2-(4-(2,4-dichlorophenyl)-5-(4-methyl-1H-imidazol-2-yl)pyrimidin-2-ylamino)ethylamino)nicotinonitrile]
iMPC-EPC colony size ([2]; CHIR99021 combined with A83-01): increased

CCCCCCCCCCCC(=O)OC[C@H](COP(=O)([O-])OCC[N+](C)(C)C)OC(=O)CCCCCCCCCCC [Dilauroyl phosphatidylcholine]
increase in the number of FOXA2-positive colonies [8]: 2 fold

C[C@H](NC(=O)Cc1cc(F)cc(F)c1)C(=O)N[C@H]1N=C(c2ccccc2)c2ccccc2N(C)C1=O [Compound E]
induction of ALB gene expression [1]: effective
effect on presenilase activity [9]: only weakly affects
IC50 [10]: 0.3 nM
